How the values were obtained:
Assay in all cases: relative viability (nuclei count vs DMSO), 5 days (fraction); higher = more cells survive
NCI-H1793 = tested on: NCI-H1793
In short: (§1)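 For relative viability, nuclei counts in treated wells were divided by those in vehicle wells. Lung cancer cell lines had been pin-tool dosed in 1536-well plates the day after seeding and cultured for 5 days, then fixed and stained in one step (final 0.05% Triton X-100, 1% formaldehyde, 1 ug/ml Hoechst) and imaged at 4×. Doses were one drug alone or a fixed anchor-drug dose plus five library-drug doses (not always all listed) in √10 steps, and values are duplicate-plate medians.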

EPLC-272H = tested on: EPLC-272H
In short: as §1

ABC-1 = tested on: ABC-1
In short: as §1

LCLC-103H = tested on: LCLC-103H
In short: as §1

NCI-H3122 = tested on: NCI-H3122
In short: as §1

ChaGo-K-1 = tested on: ChaGo-K-1
In short: as §1

NCI-H2085 = tested on: NCI-H2085
In short: as §1

HCC-15 = tested on: HCC-15
In short: as §1

COR-L23 = tested on: COR-L23
In short: as §1

NCI-H2228 = tested on: NCI-H2228
In short: as §1

HCC-827 = tested on: HCC-827
In short: as §1

NCI-H2347 = tested on: NCI-H2347
In short: as §1

HCC-366 = tested on: HCC-366
In short: as §1

NCI-H2023 = tested on: NCI-H2023
In short: as §1

NCI-H1944 = tested on: NCI-H1944
In short: as §1

NCI-H1355 = tested on: NCI-H1355
In short: as §1

PC-14 = tested on: PC-14
In short: as §1

SW 1573 = tested on: SW 1573
In short: as §1

NCI-H2009 = tested on: NCI-H2009
In short: as §1

NCI-H2405 = tested on: NCI-H2405
In short: as §1

NCI-H1734 = tested on: NCI-H1734
In short: as §1

HCC-44 = tested on: HCC-44
In short: as §1

With `CN1CCN(CCOc2cc(OC3CCOCC3)c3c(Nc4c(Cl)ccc5c4OCO5)ncnc3c2)CC1` [Saracatinib] + CC(=O)c1c(C)c2cnc(Nc3ccc(N4CCNCC4)cn3)nc2n(C2CCCC2)c1=O [Palbociclib] (partner 0.5 µM) the relative viability (NCI-H1793; first compound 0.02 µM) was 0.363, the relative viability (NCI-H1793; first compound 0.2 µM) was 0.311 and the relative viability (NCI-H1793; first compound 0.6325 µM) was 0.299. The relative viability (NCI-H1793; first compound 2 µM) was 0.278, the relative viability (EPLC-272H; first compound 0.02 µM) was 0.342 and the relative viability (EPLC-272H; first compound 0.2 µM) was 0.287. It also gave a relative viability (EPLC-272H; first compound 0.6325 µM) of 0.413, a relative viability (EPLC-272H; first compound 2 µM) of 0.305 and a relative viability (ABC-1; first compound 0.02 µM) of 0.624. The relative viability (ABC-1; first compound 0.2 µM) was 0.646, the relative viability (ABC-1; first compound 0.6325 µM) was 0.891 and the relative viability (ABC-1; first compound 2 µM) was 0.622. For the same compound, the relative viability (LCLC-103H; first compound 0.02 µM) was 0.498, the relative viability (LCLC-103H; first compound 0.2 µM) was 0.389 and the relative viability (LCLC-103H; first compound 0.6325 µM) was 0.479. It also gave a relative viability (LCLC-103H; first compound 2 µM) of 0.461, a relative viability (NCI-H3122; first compound 0.02 µM) of 0.194 and a relative viability (NCI-H3122; first compound 0.2 µM) of 0.174. For the same compound, the relative viability (NCI-H3122; first compound 0.6325 µM) was 0.199, the relative viability (NCI-H3122; first compound 2 µM) was 0.185 and the relative viability (ChaGo-K-1; first compound 0.02 µM) was 0.896. The relative viability (ChaGo-K-1; first compound 0.2 µM) was 0.533, the relative viability (ChaGo-K-1; first compound 0.6325 µM) was 0.92 and the relative viability (ChaGo-K-1; first compound 2 µM) was 0.865. The relative viability (NCI-H2085; first compound 0.02 µM) was 0.518, the relative viability (NCI-H2085; first compound 0.2 µM) was 0.448 and the relative viability (NCI-H2085; first compound 0.6325 µM) was 0.499. For the same compound, the relative viability (NCI-H2085; first compound 2 µM) was 0.48, the relative viability (HCC-15; first compound 0.02 µM) was 0.763 and the relative viability (HCC-15; first compound 0.2 µM) was 0.677. The relative viability (HCC-15; first compound 0.6325 µM) was 0.758, the relative viability (HCC-15; first compound 2 µM) was 0.753 and the relative viability (COR-L23; first compound 0.02 µM) was 0.278. For the same compound, the relative viability (COR-L23; first compound 0.2 µM) was 0.301, the relative viability (COR-L23; first compound 0.6325 µM) was 0.243 and the relative viability (COR-L23; first compound 2 µM) was 0.287. The relative viability (NCI-H2228; first compound 0.02 µM) was 0.955, the relative viability (NCI-H2228; first compound 0.2 µM) was 0.649 and the relative viability (NCI-H2228; first compound 0.6325 µM) was 0.805. It also gave a relative viability (NCI-H2228; first compound 2 µM) of 0.557, a relative viability (HCC-827; first compound 0.02 µM) of 0.507 and a relative viability (HCC-827; first compound 0.2 µM) of 0.314. The relative viability (HCC-827; first compound 0.6325 µM) was 0.185, the relative viability (HCC-827; first compound 2 µM) was 0.167 and the relative viability (NCI-H2347; first compound 0.02 µM) was 0.468. It also gave a relative viability (NCI-H2347; first compound 0.2 µM) of 0.397, a relative viability (NCI-H2347; first compound 0.6325 µM) of 0.428 and a relative viability (NCI-H2347; first compound 2 µM) of 0.432. It also gave a relative viability (HCC-366; first compound 0.02 µM) of 0.382, a relative viability (HCC-366; first compound 0.2 µM) of 0.176 and a relative viability (HCC-366; first compound 0.6325 µM) of 0.272. For the same compound, the relative viability (HCC-366; first compound 2 µM) was 0.164, the relative viability (NCI-H2023; first compound 0.02 µM) was 0.379 and the relative viability (NCI-H2023; first compound 0.2 µM) was 0.31. For the same compound, the relative viability (NCI-H2023; first compound 0.6325 µM) was 0.282, the relative viability (NCI-H2023; first compound 2 µM) was 0.19 and the relative viability (NCI-H1944; first compound 0.02 µM) was 0.3. For the same compound, the relative viability (NCI-H1944; first compound 0.2 µM) was 0.281, the relative viability (NCI-H1944; first compound 0.6325 µM) was 0.305 and the relative viability (NCI-H1944; first compound 2 µM) was 0.255. It also gave a relative viability (NCI-H1355; first compound 0.02 µM) of 0.401, a relative viability (NCI-H1355; first compound 0.2 µM) of 0.432 and a relative viability (NCI-H1355; first compound 0.6325 µM) of 0.416. The relative viability (NCI-H1355; first compound 2 µM) was 0.371, the relative viability (PC-14; first compound 0.02 µM) was 0.471 and the relative viability (PC-14; first compound 0.2 µM) was 0.217. The relative viability (PC-14; first compound 0.6325 µM) was 0.0934, the relative viability (PC-14; first compound 2 µM) was 0.0848 and the relative viability (SW 1573; first compound 0.02 µM) was 0.416. It also gave a relative viability (SW 1573; first compound 0.2 µM) of 0.399, a relative viability (SW 1573; first compound 0.6325 µM) of 0.382 and a relative viability (SW 1573; first compound 2 µM) of 0.28. The relative viability (NCI-H2009; first compound 0.02 µM) was 0.261, the relative viability (NCI-H2009; first compound 0.2 µM) was 0.136 and the relative viability (NCI-H2009; first compound 0.6325 µM) was 0.201. For the same compound, the relative viability (NCI-H2009; first compound 2 µM) was 0.136, the relative viability (NCI-H2405; first compound 0.02 µM) was 0.567 and the relative viability (NCI-H2405; first compound 0.2 µM) was 0.45. The relative viability (NCI-H2405; first compound 0.6325 µM) was 0.44, the relative viability (NCI-H2405; first compound 2 µM) was 0.358 and the relative viability (NCI-H1734; first compound 0.02 µM) was 0.362. For the same compound, the relative viability (NCI-H1734; first compound 0.6325 µM) was 0.372, the relative viability (NCI-H1734; first compound 2 µM) was 0.329 and the relative viability (HCC-44; first compound 0.02 µM) was 1.01. For the same compound, the relative viability (HCC-44; first compound 0.2 µM) was 0.974, the relative viability (HCC-44; first compound 0.6325 µM) was 0.979 and the relative viability (HCC-44; first compound 2 µM) was 0.938.

From the supplement of paper PMC10307832
